Test: Temperature cycling / physical stability of solvents, systems and formulations
Type: physicochemical
Protocol: Temperature Cycling of Selected Solvents and Solubility Systems was studied. Systems were prepared at ambient temperature, with mixed solvent in the weight ratios reported in brackets. Mitotane, 0.25 grams, was then added to 1 gram of each solvent or solvent mixture. Samples were placed in the refrigerator (5° C.±3° C.) and observations were recorded. The samples were then left at ambient temperature for 24 hours, and observations recorded. The samples were then placed in a 40° C. oven, and final observation was made after another 24 hours. These observations are recorded in the table below.
Based on these studies, several formulations were prepared (see Tables 10 and 11). Temperature cycling was tested to evaluate the physical stability of the three formulations F-2772-054 (33.3% drug w/w), F-2772-055 (20.0% drug w/w), and F-2772-057 (33.3% drug w/w) as well as formulations F-2772-054 and 057 at 28.5% drug w/w. […] Temperature cycling consisted of three stages for 24 hour periods; refrigeration (5° C.), 40° C. conventional oven, and room temperature. After each 24 hour cycle, solutions were evaluated for clarity.

For `Clc1ccc(C(c2ccccc2Cl)C(Cl)Cl)cc1` (centres unmarked) [mitotane, Mitotane], the “Highest mitotane concentration trial found to be the most stable” value was 28.5 % weight/weight and the “Highest most stable mitotane concentration expressed as drug loading” value (28.5/(100-28.5)) was 40 % drug loading.

Reference: patent US9770509B2, “Self micro-emulsifying drug delivery system with increased bioavailability” (Pharmaceutics International, Inc., priority 2010, dated 2017)
